Measured values published in ChEMBL document CHEMBL1130301, “Constrained -alanine based GpIIb/IIIa antagonists” (Bioorg Med Chem Lett, 1997).
Where a SMILES comes first, the peptide text is derived from it.

What follows are molecules tested against Integrin alpha-IIb/beta-3 (Homo sapiens, UniProt P05106+P08514) (assay: Inhibition of fibrinogen binding to activated human platelets).
Assay type: functional

Sequence of Integrin alpha-IIb/beta-3 (P05106 27-788 limits assumed): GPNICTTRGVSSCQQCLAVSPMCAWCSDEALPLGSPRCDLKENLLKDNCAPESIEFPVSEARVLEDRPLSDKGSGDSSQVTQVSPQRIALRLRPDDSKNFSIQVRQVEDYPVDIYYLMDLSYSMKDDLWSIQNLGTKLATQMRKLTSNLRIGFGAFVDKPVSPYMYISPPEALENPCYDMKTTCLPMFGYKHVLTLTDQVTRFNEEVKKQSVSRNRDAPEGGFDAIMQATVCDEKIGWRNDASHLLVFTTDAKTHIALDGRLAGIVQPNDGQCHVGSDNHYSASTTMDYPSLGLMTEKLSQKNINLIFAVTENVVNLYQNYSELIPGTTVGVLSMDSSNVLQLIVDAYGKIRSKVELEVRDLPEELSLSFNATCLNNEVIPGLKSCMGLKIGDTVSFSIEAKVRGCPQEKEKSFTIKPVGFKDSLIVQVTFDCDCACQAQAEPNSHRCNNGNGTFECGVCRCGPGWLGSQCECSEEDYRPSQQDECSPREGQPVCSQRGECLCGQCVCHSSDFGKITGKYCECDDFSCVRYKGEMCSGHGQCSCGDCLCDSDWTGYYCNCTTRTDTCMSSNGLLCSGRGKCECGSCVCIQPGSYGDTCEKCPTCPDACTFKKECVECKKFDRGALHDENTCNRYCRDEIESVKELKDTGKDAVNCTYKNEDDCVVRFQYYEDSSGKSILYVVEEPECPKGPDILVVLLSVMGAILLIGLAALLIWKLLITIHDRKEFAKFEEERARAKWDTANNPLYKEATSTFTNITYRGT
Sequence of Integrin alpha-IIb/beta-3 (P08514 32-887 limits assumed): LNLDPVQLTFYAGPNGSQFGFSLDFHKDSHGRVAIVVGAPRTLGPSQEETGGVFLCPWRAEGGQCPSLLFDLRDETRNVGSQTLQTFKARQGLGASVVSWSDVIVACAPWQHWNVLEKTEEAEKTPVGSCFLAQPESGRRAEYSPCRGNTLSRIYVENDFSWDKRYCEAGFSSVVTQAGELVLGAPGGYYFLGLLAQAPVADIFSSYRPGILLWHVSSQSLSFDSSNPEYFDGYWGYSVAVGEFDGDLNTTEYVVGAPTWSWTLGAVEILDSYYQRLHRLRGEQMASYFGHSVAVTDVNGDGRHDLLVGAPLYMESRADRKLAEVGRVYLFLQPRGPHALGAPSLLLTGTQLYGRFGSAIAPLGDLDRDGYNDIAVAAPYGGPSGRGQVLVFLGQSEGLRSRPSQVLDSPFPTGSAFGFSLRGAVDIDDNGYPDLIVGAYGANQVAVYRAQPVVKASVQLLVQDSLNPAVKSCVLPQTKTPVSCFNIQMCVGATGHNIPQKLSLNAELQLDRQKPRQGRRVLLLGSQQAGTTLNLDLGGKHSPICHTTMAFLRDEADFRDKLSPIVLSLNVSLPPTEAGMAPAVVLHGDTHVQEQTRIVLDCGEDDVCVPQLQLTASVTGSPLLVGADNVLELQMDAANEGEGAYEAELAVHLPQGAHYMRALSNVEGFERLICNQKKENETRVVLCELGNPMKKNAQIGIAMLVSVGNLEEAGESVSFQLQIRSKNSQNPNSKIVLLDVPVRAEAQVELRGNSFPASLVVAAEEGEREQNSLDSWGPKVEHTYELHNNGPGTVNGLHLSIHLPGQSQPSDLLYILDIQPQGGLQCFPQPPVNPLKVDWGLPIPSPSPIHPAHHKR
Sequence of Integrin alpha-IIb/beta-3 (P08514 891-1039 limits assumed): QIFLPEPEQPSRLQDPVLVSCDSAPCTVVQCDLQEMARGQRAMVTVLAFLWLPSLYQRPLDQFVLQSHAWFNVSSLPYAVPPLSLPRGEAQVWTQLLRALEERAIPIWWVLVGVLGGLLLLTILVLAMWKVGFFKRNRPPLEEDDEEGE

Compound	IC50
CC(C)[C@H](NC(=O)[C@H](CC(=O)O)NC(=O)C[C@H]1CCCN1C(=O)/C=C/c1ccc(NC(=N)N)cc1)C(=O)O	26000 nM
CC(C)[C@H](NC(=O)[C@H](CC(=O)O)NC(=O)C[C@@H]1CCCCN1C(=O)/C=C/c1ccc(NC(=N)N)cc1)C(=O)O	200 nM
CC(C)[C@H](NC(=O)[C@H](CC(=O)O)NC(=O)CCN(C)C(=O)/C=C/c1ccc(NC(=N)N)cc1)C(=O)O	200 nM
CC(C)[C@H](NC(=O)[C@H](CC(=O)O)NC(=O)[C@H]1CCN(C(=O)/C=C/c2ccc(NC(=N)N)cc2)C1)C(=O)O	3000 nM
CC(C)[C@H](NC(=O)[C@H](CC(=O)O)NC(=O)[C@@H]1CCCN(C(=O)/C=C/c2ccc(NC(=N)N)cc2)C1)C(=O)O	70 nM
CC(C)[C@H](NC(=O)[C@H](CC(=O)O)NC(=O)C[C@@H]1CCCN1C(=O)/C=C/c1ccc(NC(=N)N)cc1)C(=O)O	1500 nM
CC(C)[C@H](NC(=O)[C@H](CC(=O)O)NC(=O)CCCNC(=O)/C=C/c1ccc(NC(=N)N)cc1)C(=O)O	70000 nM
CC(C)[C@H](NC(=O)[C@H](CC(=O)O)NC(=O)CCNC(=O)/C=C/c1ccc(NC(=N)N)cc1)C(=O)O	240 nM
CC(C)[C@H](NC(=O)[C@H](CC(=O)O)NC(=O)C[C@H]1CCN1C(=O)/C=C/c1ccc(NC(=N)N)cc1)C(=O)O	110 nM
CC(C)[C@H](NC(=O)[C@H](CC(=O)O)NC(=O)C[C@H]1CCCCN1C(=O)/C=C/c1ccc(NC(=N)N)cc1)C(=O)O	> 20000 nM
CCN(CCC(=O)N[C@@H](CC(=O)O)C(=O)N[C@H](C(=O)O)C(C)C)C(=O)/C=C/c1ccc(NC(=N)N)cc1	220 nM
CC(C)[C@H](NC(=O)[C@H](CC(=O)O)NC(=O)[C@H]1CCCN(C(=O)/C=C/c2ccc(NC(=N)N)cc2)C1)C(=O)O	120 nM
CC(C)[C@H](NC(=O)[C@H](CC(=O)O)NC(=O)C1CN(C(=O)/C=C/c2ccc(NC(=N)N)cc2)C1)C(=O)O	> 20000 nM
CC(C)[C@H](NC(=O)[C@H](CC(=O)O)NC(=O)CNC(=O)/C=C/c1ccc(NC(=N)N)cc1)C(=O)O	5000 nM
CC(C)[C@H](NC(=O)[C@H](CC(=O)O)NC(=O)[C@@H]1CCN(C(=O)/C=C/c2ccc(NC(=N)N)cc2)C1)C(=O)O	3 nM
CC(C)[C@H](NC(=O)[C@H](CC(=O)O)NC(=O)CNC(=O)[C@@H](N)CCCN=C(N)N)C(=O)O (H-RGDV-OH)	6000 nM
